The values that follow are results of earlier work, collected in paper PMC6337497 (International Journal of Molecular Sciences, 2018).

The test system of this data set is metastatic CRPC. On the set-up: method as in PMID 12644816, PMID 11448901. Conditions: Phase II clinical trial; cited from earlier work.

For `O=C1CCC(N2C(=O)c3ccccc3C2=O)C(=O)N1` (stereo not shown) [thalidomide], the “patients with a decline in PSA of ≥40%” value is on record as 30–40%.
